According to patent publication US20230146455A1, “TREATMENT OF INFLAMMATORY DISEASES WITH PEPTIDES AND PHARMACEUTICAL COMPOSITIONS” (Yuyu Pharma, Inc., priority 2020, published 2023):
“And” between values parts separate entries of the source, which are not always exact repeats. Equal values may be shown once. Where a SMILES comes first, the peptide text is derived from it. [ ]: non-standard residue; d: D form. Hyp = O=C(O)[C@@H]1C[C@@H](O)CN1

Test system: CCL20/MIP-3 alpha
Experiment: Example 9 Luminex, LPS hPBMCs: CCL20/MIP-3 alpha
Format: cell-based, human
Experimental: Treatment Human PBMCs were pretreated with YY-101, YDE-011 and YDE-043 or reference compound; Xiidra® at various concentration (ranging from 1 nM to 100 uM) for 2 h before stimulation. An equal volume of 0.5% DMSO was used as a vehicle control. Then, the cells were treated with LPS at 5 ug/ml. The supernatants from treated cells were harvested at 24 h and placed in a 96 well for Luminex cytokine & chemokine profiling using a Luminex 200 multiplex assay (Luminex; R&D system, USA).
The main study arm with triplicate wells per group in a 24-well plate: • 1. Blank • 2. PBMC: 0.5% DMSO • 3. PBMC+LPS (5 ug/ml) • 4. PBMC+YY-101 100 uM • 5. PBMC+YY-101 10 uM • 6. PBMC+YY-101 1 uM • 7. PBMC+YY-101 0.1 uM • 8. PBMC+YY-101 0.01 uM • 9. PBMC+LPS (5 ug/ml)+Xiidra®100 uM • 10. PBMC+LPS (5 ug/ml)+Xiidra® 10 uM • 11. PBMC+LPS (5 ug/ml)+Xiidra® 1 uM • 12. PBMC+LPS (5 ug/ml)+Xiidra®0.1 uM • 13. PBMC+LPS (5 ug/ml)+Xiidra®0.01 uM • 14. PBMC+LPS (5 ug/ml)+Xiidra®0.001 uM • 15. PBMC+LPS (5 ug/ml)+YY-101 100 uM • 16. PBMC+LPS (5 ug/ml)+YY-101 10 uM • 17. PBMC+LPS (5 ug/ml)+YY-101 1 uM • 18. PBMC+LPS (5 ug/ml)+YY-101 0.1 uM • 19. PBMC+LPS (5 ug/ml)+YY-101 0.01 uM • 20. PBMC+LPS (5 ug/ml)+YY-101 0.001 uM • 21. PBMC+LPS (5 ug/ml)+YDE-011 100 uM • 22. PBMC+LPS (5 ug/ml)+YDE-011 10 uM • 23. PBMC+LPS (5 ug/ml)+YDE-011 1 uM • 24. PBMC+LPS (5 ug/ml)+YDE-011 0.1 uM • 25. PBMC+LPS (5 ug/ml)+YDE-011 0.01 uM • 26. PBMC+LPS (5 ug/ml)+YDE-011 0.001 uM • 27. PBMC+LPS (5 ug/ml)+YDE-043 100 uM • 28. PBMC+LPS (5 ug/ml)+YDE-043 10 uM • 29. PBMC+LPS (5 ug/ml)+YDE-043 1 uM • 30. PBMC+LPS (5 ug/ml)+YDE-043 0.1 uM • 31. PBMC+LPS (5 ug/ml)+YDE-043 0.01 uM • 32. PBMC+LPS (5 ug/ml)+YDE-043 0.001 uM
Multiplex assay was used to measure 30 cytokines and chemokines. The 1:2, 1:10 and 1:200 diluted cell supernatant and serial dilution of the standard were dispensed into a 96 well plate at 50 ul/well. Then, the pre-mixed cocktail of antibody-coated magnetic beads was dispensed at 50 ul/well and incubated at room temperature for 2 h in a horizontal orbital microplate shaker at 800±500 rpm. The beads were washed using a magnetic device to prevent loss. The biotin-antibody was dispensed in 50 ul of each well and incubated at room temperature for 1 h in a shaker at 800±500 rpm. After washing, streptavidin-PE was added at 50 ul/well and incubated at room temperature for 30 min in a shaker under the same conditions. Finally, after washing, wash buffer (100 ul/well) was added to the plate and incubated in a shaker for 2 min. The Luminex™ 200 setting were set according to the manufacturer's protocol. The data was calculated with a standard five-parameter logistic nonlinear regression analysis of the data (xPonent software 4.2, USA). The levels of cytokine/chemokine are normalized to the live cell counts (1×10^5 cells/mL) and presented as concentrations per mL (pg/mL or ng/mL).

[1] = PBMC + LPS(5 ug/ml) + test article 0.001 uM, Mean
[2] = PBMC + LPS(5 ug/ml) + test article 0.001 uM, individual replicate
[3] = PBMC + LPS(5 ug/ml) + test article 0.01 uM, Mean
[4] = PBMC + LPS(5 ug/ml) + test article 0.01 uM, individual replicate
[5] = PBMC + LPS(5 ug/ml) + test article 0.1 uM, Mean
[6] = PBMC + LPS(5 ug/ml) + test article 0.1 uM, individual replicate
[7] = PBMC + LPS(5 ug/ml) + test article 1 uM, Mean
[8] = PBMC + LPS(5 ug/ml) + test article 1 uM, individual replicate
[9] = PBMC + LPS(5 ug/ml) + test article 10 uM, Mean
[10] = PBMC + LPS(5 ug/ml) + test article 10 uM, individual replicate
[11] = PBMC + LPS(5 ug/ml) + test article 100 uM, Mean
[12] = PBMC + LPS(5 ug/ml) + test article 100 uM, individual replicate
[13] = PBMC + test article 0.01 uM, no LPS, Mean
[14] = PBMC + test article 0.01 uM, no LPS, individual replicate
[15] = PBMC + test article 0.1 uM, no LPS, Mean
[16] = PBMC + test article 0.1 uM, no LPS, individual replicate
[17] = PBMC + test article 1 uM, no LPS, Mean
[18] = PBMC + test article 1 uM, no LPS, individual replicate
[19] = PBMC + test article 10 uM, no LPS, Mean
[20] = PBMC + test article 10 uM, no LPS, individual replicate
[21] = PBMC + test article 100 uM, no LPS, Mean
[22] = PBMC + test article 100 uM, no LPS, individual replicate

## CC(C)C[C@H](NC(=O)CNC(=O)[C@H](CC(=O)O)NC(=O)[C@H](CCC(N)=O)NC(=O)CNC(=O)[C@@H]1C[C@@H](O)CN1)C(=O)N[C@@H](C)C(=O)NCC(=O)N1CCC[C@H]1C(=O)N[C@@H](CCCCN)C(=O)O [YY-101] (H-[Hyp]GQDGLAGPK-OH; N-terminus and C-terminus assumed)
[1]
  Concentration, CCL20/MIP-3 alpha: 315.3 pg/mL
  MFI, CCL20/MIP-3 alpha: 346.7
  conc/live cell, CCL20/MIP-3 alpha: 49.1 pg/10^5
[2]
  Concentration, CCL20/MIP-3 alpha: 301.0 pg/mL and 289.9 pg/mL and 355.1 pg/mL
  MFI, CCL20/MIP-3 alpha: 329.0 and 315.5 and 395.5
  conc/live cell, CCL20/MIP-3 alpha: 52.8 pg/10^5 and 40.8 pg/10^5 and 53.8 pg/10^5
[3]
  Concentration, CCL20/MIP-3 alpha: 377.7 pg/mL
  MFI, CCL20/MIP-3 alpha: 423.7
  conc/live cell, CCL20/MIP-3 alpha: 61.2 pg/10^5
[4]
  Concentration, CCL20/MIP-3 alpha: 383.7 pg/mL and 338.9 pg/mL and 410.6 pg/mL
  MFI, CCL20/MIP-3 alpha: 431.0 and 375.5 and 464.5
  conc/live cell, CCL20/MIP-3 alpha: 60.0 pg/10^5 and 56.5 pg/10^5 and 67.3 pg/10^5
[5]
  Concentration, CCL20/MIP-3 alpha: 364.1 pg/mL
  MFI, CCL20/MIP-3 alpha: 406.7
  conc/live cell, CCL20/MIP-3 alpha: 62.5 pg/10^5
[6]
  Concentration, CCL20/MIP-3 alpha: 378.5 pg/mL and 364.4 pg/mL and 349.4 pg/mL
  MFI, CCL20/MIP-3 alpha: 424.5 and 407.0 and 388.5
  conc/live cell, CCL20/MIP-3 alpha: 61.0 pg/10^5 and 70.1 pg/10^5 and 56.4 pg/10^5
[7]
  Concentration, CCL20/MIP-3 alpha: 338.5 pg/mL
  MFI, CCL20/MIP-3 alpha: 375.0
  conc/live cell, CCL20/MIP-3 alpha: 52.1 pg/10^5
[8]
  Concentration, CCL20/MIP-3 alpha: 323.0 pg/mL and 330.0 pg/mL and 362.4 pg/mL
  MFI, CCL20/MIP-3 alpha: 356.0 and 364.5 and 404.5
  conc/live cell, CCL20/MIP-3 alpha: 51.3 pg/10^5 and 46.5 pg/10^5 and 58.4 pg/10^5
[9]
  Concentration, CCL20/MIP-3 alpha: 368.2 pg/mL
  MFI, CCL20/MIP-3 alpha: 411.8
  conc/live cell, CCL20/MIP-3 alpha: 55.3 pg/10^5
[10]
  Concentration, CCL20/MIP-3 alpha: 324.3 pg/mL and 377.7 pg/mL and 402.6 pg/mL
  MFI, CCL20/MIP-3 alpha: 357.5 and 423.5 and 454.5
  conc/live cell, CCL20/MIP-3 alpha: 54.0 pg/10^5 and 59.0 pg/10^5 and 53.0 pg/10^5
[11]
  Concentration, CCL20/MIP-3 alpha: 578.6 pg/mL
  MFI, CCL20/MIP-3 alpha: 677.7
  conc/live cell, CCL20/MIP-3 alpha: 100.0 pg/10^5
[12]
  Concentration, CCL20/MIP-3 alpha: 590.1 pg/mL and 591.7 pg/mL and 553.9 pg/mL
  MFI, CCL20/MIP-3 alpha: 692.5 and 694.5 and 646.0
  conc/live cell, CCL20/MIP-3 alpha: 93.7 pg/10^5 and 95.4 pg/10^5 and 110.8 pg/10^5
[13]
  Concentration, CCL20/MIP-3 alpha: 12.1 pg/mL
  MFI, CCL20/MIP-3 alpha: 11.0
  conc/live cell, CCL20/MIP-3 alpha: 2.5 pg/10^5
[14]
  Concentration, CCL20/MIP-3 alpha: 7.3 pg/mL and 16.8 pg/mL
  MFI, CCL20/MIP-3 alpha: 7.5 and 14.5
  conc/live cell, CCL20/MIP-3 alpha: 1.4 pg/10^5 and 3.5 pg/10^5
[15]
  Concentration, CCL20/MIP-3 alpha: 9.5 pg/mL
  MFI, CCL20/MIP-3 alpha: 9.0
  conc/live cell, CCL20/MIP-3 alpha: 1.8 pg/10^5
[16]
  Concentration, CCL20/MIP-3 alpha: 7.3 pg/mL and 11.6 pg/mL
  MFI, CCL20/MIP-3 alpha: 7.5 and 10.5
  conc/live cell, CCL20/MIP-3 alpha: 1.7 pg/10^5 and 2.0 pg/10^5
[17]
  Concentration, CCL20/MIP-3 alpha: 8.8 pg/mL
  MFI, CCL20/MIP-3 alpha: 8.5
  conc/live cell, CCL20/MIP-3 alpha: 1.6 pg/10^5
[18]
  Concentration, CCL20/MIP-3 alpha: 7.3 pg/mL and 10.2 pg/mL
  MFI, CCL20/MIP-3 alpha: 7.5 and 9.5
  conc/live cell, CCL20/MIP-3 alpha: 1.3 pg/10^5 and 1.9 pg/10^5
[19]
  Concentration, CCL20/MIP-3 alpha: 41.3 pg/mL
  MFI, CCL20/MIP-3 alpha: 36.5
  conc/live cell, CCL20/MIP-3 alpha: 6.6 pg/10^5
[20]
  Concentration, CCL20/MIP-3 alpha: 57.4 pg/mL and 25.3 pg/mL
  MFI, CCL20/MIP-3 alpha: 51.5 and 21.5
  conc/live cell, CCL20/MIP-3 alpha: 9.0 pg/10^5 and 4.1 pg/10^5
[21]
  Concentration, CCL20/MIP-3 alpha: 22.4 pg/mL
  MFI, CCL20/MIP-3 alpha: 19.3
  conc/live cell, CCL20/MIP-3 alpha: 3.4 pg/10^5
[22]
  Concentration, CCL20/MIP-3 alpha: 29.8 pg/mL and 14.9 pg/mL
  MFI, CCL20/MIP-3 alpha: 25.5 and 13.0
  conc/live cell, CCL20/MIP-3 alpha: 4.7 pg/10^5 and 2.1 pg/10^5
At 100.iM, LPS 5 ug/mL 24 hrs
  LPS-induced CCL20 levels (in words): further increased
